From patent US7576212B2, “Thieno[2,3-B] pyridines as potassium channel inhibitors” (Xention Limited, priority 2004, dated 2009) come the findings set out here.

Each structure is given as a SMILES string.

By inhibition is commonly meant the drop in the measured response relative to a control, in per cent. High values mean a strong effect, low ones a weak effect.

The target in one assay is T1, human Kv1.3 (Homo sapiens, UniProt P22001).
T1 construct: expressed in transfected cells
The assay can be described thus: Kv1.3 whole cell patch electrophysiology (AutoPatch / conventional). The format is cell-based. The following applies: 1 μM compound; cells stably transfected with human Kv1.3; whole cell mode; room temperature. Here is the method: Kv1.3 Autopatch Electrophysiology Method
Cells stably transfected with cDNA for human Kv1.3 were grown in Dulbecco's Modified Eagle media (DMEM) alpha supplemented with 10% Fetal Calf Serum (FCS), 20 μl/ml penicillin (5000 U/ml) streptomycin (5000 μg/ml), 10 μl/ml [100×] glutamine, and blasticidin (7.5 μg/ml). Compounds were tested on these cells using the AutoPatch technology in whole cell mode.
The external bathing solution contained (in mM): 150 NaCl, 10 KCl, 1 MgCl2, 3 CaCl2, 10 HEPES, pH 7.4 with NaOH. Patch pipettes were filled with an electrode solution of composition (in mM): 100 K-Gluconate, 20 KCl, 1 MgCl2, 1 CaCl2, 10 HEPES, 11 EGTA, 5 ATP-Na2, 2 Glutathione pH 7.2 with KOH.
(§1) Compounds were dissolved in DMSO (100%) and made up in the external bather at a concentration of 1 μM. All experiments were conducted at room temperature (22-24° C.).
(§2) A cell suspension (10 ml), with a density of 100,000 cells/ml, was aliquoted into a 15 ml centrifuge tube and transferred to an incubator (37° C., 5% CO2) for approximately one hour before use. Following 60 min incubation, a tube was taken and centrifuged at 1000 rpm for 4 mins at room temperature. 9.5 ml supernatant was thence discarded, leaving a cell pellet at the bottom of the tube. The pellet was then resuspended using 100 μl of cold (4° C.), filtered (0.22 μm), 0.2% BSA/bather solution (0.02 g BSA/10 ml bather). The bottom of the tube was manually agitated gently until the solution became cloudy with cells. The 100 μl cell resuspension solution was then stored on the bench at 4° C. (using a Peltier-based temperature control device) until used.
(§3) A length of capillary glass (1B150F-4, WPI) was dipped into the cell suspension solution, such that ˜3 cm column of fluid was taken up by capillary action. A Ag/AgCl wire was dropped into the non-dipped end of the capillary also. The outside of the solution-filled end of the capillary was then dried and the capillary was loaded into the AutoPatch™. Borosilicate glass patch pipettes (from 1.5 mm OD, thin-walled filamented, GC150-TF capillary glass, Harvard) were pulled using a DMZ pipette puller (Zeitz Instruments), and were back-filled using the internal pipette solution, being careful that no bubbles remain at the tip or in the body of the pipette. Patch pipettes typically had resistances of 2.3-3.5 MΩ. Once filled, the pipette tip and a proportion of the shaft (˜15mm) were dipped into Sigmacote (Sigma). The recording pipette was then loaded into the AutoPatch™. Automated patch-clamping was initiated by the operator, but thereafter AutoPatch.exe continued the experiment providing that pre-set conditions and criteria were satisfied.
(§4) Whole cell patch-clamp recordings were made using the AutoPatch™ rig, which incorporated an EPC9 or EPC10 amplifier (HEKA, Germany) under control of Pulse software (v8.54 or v8.76, HEKA, Germany), a motion controller with 2 translators (Newport, UK), valve controller (VF1) and a c-level suction device all at room temperature (22-24° C.). This equipment was completely under the control of AutoPatch.exe and operator intervention was only made when there was a requirement to refill the drug reservoirs or to prevent the loss of a cell due to a technical error. Cells with an Rseries greater than 18 MΩ were discounted from the experiment.
Qualification stages prior to perfusion and drug application ensured that the observed current met the criteria for the experiment. Only those cells with an IK>400 pA were used for experiments. Cells were continuously perfused with external solution at a flow rate of 1.8-2 ml/minute. […] Online analysis of the hKv1.3 current during the application of compounds was performed by the AutoPatch™ software. Voltage-step protocols and analysis of data was performed as described for conventional electrophysiology.
Electrophysiology voltage-step protocols and analysis of data was performed as follows. Data was sampled at 5 kHz, and filtered with a −3 dB bandwidth of 2.5 kHz. […]

For another assay, the target named is T2, human Kv1.5 (Homo sapiens, UniProt P22460).
T2 construct: expressed in transfected cells
T2 sequence (P22460 whole entry): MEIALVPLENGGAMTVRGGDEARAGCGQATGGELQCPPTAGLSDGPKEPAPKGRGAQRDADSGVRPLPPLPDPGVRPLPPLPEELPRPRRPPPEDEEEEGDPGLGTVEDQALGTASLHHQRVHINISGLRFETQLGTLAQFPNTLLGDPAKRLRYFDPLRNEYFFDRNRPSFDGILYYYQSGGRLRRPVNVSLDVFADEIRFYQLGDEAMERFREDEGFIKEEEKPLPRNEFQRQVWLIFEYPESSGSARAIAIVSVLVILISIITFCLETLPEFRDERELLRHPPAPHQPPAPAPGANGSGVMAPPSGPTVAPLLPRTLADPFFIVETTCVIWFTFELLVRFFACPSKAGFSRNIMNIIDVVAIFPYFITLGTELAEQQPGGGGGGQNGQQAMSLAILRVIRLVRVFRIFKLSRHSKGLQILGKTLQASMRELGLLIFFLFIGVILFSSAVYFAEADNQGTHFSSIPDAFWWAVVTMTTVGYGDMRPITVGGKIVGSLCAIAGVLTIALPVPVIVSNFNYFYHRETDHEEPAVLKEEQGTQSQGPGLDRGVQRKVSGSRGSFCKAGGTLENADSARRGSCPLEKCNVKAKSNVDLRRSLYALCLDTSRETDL
The assay can be described thus: Kv1.5 whole cell patch electrophysiology (AutoPatch / conventional). The format is cell-based. The settings on record: 1 μM compound; cells stably transfected with human Kv1.5; whole cell mode; room temperature. Here is the method: Kv1.5 Autopatch Electrophysiology Method
Cells stably transfected with cDNA for human Kv1.5 (in pEF6::VA-His-TOPO) were grown in Dulbecco's Modified Eagle media (DMEM) alpha supplemented with 10% Fetal Calf Serum (FCS), 20 μl/ml penicillin (5000 U/ml) streptomycin (5000 μg/ml), 10 μl/ml [100×] glutamine, and blasticidin (7.5 μg/ml). Compounds were tested on these cells using the AutoPatch technology in whole cell mode.
The external bathing solution contained (in mM): 150 NaCl, 10 KCl, 1 MgCl2, 3 CaCl2, 10 HEPES, pH 7.4 with NaOH. Patch pipettes were filled with an electrode solution of composition (in mM): 160 KCl, 0.5 MgCl2, 10 HEPES, 1 EGTA, pH 7.4 with KOH.
as §1, §2
as §3, with “(˜15 mm)” for “(˜15mm)”
as §4
Qualification stages prior to perfusion and drug application ensured that the observed current met the criteria for the experiment. Only those cells with an IK>500 pA were used for experiments. Cells were continuously perfused with external solution at a flow rate of 1.8-2 ml/minute. […] Online analysis of the hKv1.5 current during the application of compounds was performed by the AutoPatch™ software. Voltage-step protocols and analysis of data was performed as described for conventional electrophysiology.
Electrophysiology voltage-step protocols and analysis of data was performed as follows. Data was sampled at 5kHz, and filtered with a −3 dB bandwidth of 2.5 kHz.
Cells were held at a voltage of −80 mV. […]

T1 sequence (P22001 whole entry): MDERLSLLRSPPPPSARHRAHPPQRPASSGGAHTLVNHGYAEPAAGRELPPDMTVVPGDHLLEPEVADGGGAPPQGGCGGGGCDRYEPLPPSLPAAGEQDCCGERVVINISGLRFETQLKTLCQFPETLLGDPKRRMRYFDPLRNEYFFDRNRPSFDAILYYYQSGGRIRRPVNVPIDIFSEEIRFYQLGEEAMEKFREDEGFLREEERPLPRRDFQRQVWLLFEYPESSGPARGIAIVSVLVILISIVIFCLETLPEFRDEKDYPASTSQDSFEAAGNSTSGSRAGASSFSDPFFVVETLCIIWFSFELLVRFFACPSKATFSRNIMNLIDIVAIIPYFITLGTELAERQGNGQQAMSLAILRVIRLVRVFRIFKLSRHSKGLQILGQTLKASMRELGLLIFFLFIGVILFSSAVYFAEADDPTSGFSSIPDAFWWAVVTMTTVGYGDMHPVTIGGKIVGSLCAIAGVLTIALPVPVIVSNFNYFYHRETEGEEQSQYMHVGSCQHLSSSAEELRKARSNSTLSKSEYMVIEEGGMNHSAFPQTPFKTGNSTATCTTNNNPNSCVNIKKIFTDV

Take `OCCNc1cc(NCc2ccccn2)c2c(-c3ccc(F)cc3)csc2n1` [Example 27, 2-{3-(4-Fluoro-phenyl)-4-[(pyridin-2-ylmethyl)-amino]-thieno[2,3-b]pyridin-6-ylamino}-ethanol]: the inhibition at 1 µM was 72% against human Kv1.3 and 55% against human Kv1.5.
The corresponding values for `Cc1cccc(CNc2ccnc3scc(-c4ccc(F)cc4)c23)n1` [Example 37, [3-(4-Fluoro-phenyl)-thieno[2,3-b]pyridin-4-yl]-(6-methyl-pyridin-2-ylmethyl)-amine] are 30% and 36%.
The corresponding values for `Fc1ccc(-c2csc3nccc(NCc4ccccn4)c23)cc1` [Example 36, [3-(4-Fluoro-phenyl)-thieno[2,3-b]pyridin-4-yl]-pyridin-2-ylmethyl-amine] are 32% and 20%.
Take `OCCN(CCO)c1cc(NCc2ccccn2)c2c(-c3ccc(F)cc3)csc2n1` [Example 26, 2-[{3-(4-Fluoro-phenyl)-4-[(pyridin-2-ylmethyl)-amino]-thieno[2,3-b]pyridin-6-yl}-(2-hydroxy-ethyl)-amino]-ethanol]: the inhibition at 1 µM against human Kv1.3 is 45%; against human Kv1.5, 91%.
In the case of `c1ccc(-c2csc3nccc(NCc4ccccn4)c23)cc1` [Example 35, (3-Phenyl-thieno[2,3-b]pyridin-4-yl)-pyridin-2-ylmethyl-amine], the inhibition at 1 µM against human Kv1.3 stood at 45%; against human Kv1.5, 62%.
The corresponding values for `OCCNc1cc(NCc2ccccn2)c2c(-c3ccccc3)csc2n1` [Example 24, 2-{3-Phenyl-4-[(pyridin-2-ylmethyl)-amino]-thieno[2,3-b]pyridin-6-ylamino}-ethanol] are 93% and 79%.
In the case of `Cc1cccc(CNc2cc(NCCO)nc3scc(-c4ccc(F)cc4)c23)n1` [Example 29, 2-{3-(4-Fluoro-phenyl)-4-[(6-methyl-pyridin-2-ylmethyl)-amino]-thieno[2,3-b]pyridin-6-ylamino}-ethanol], the inhibition at 1 µM against human Kv1.3 came to 62%; against human Kv1.5 it was 31%.
`OCC(CO)c1cc(NCc2ccccn2)c2c(-c3ccccc3)csc2n1` [Example 44, 2-{3-Phenyl-4-[(pyridin-2-ylmethyl)-amino]-thieno[2,3-b]pyridin-6-yl}-propane-1,3-diol]: the results for the inhibition at 1 µM against human Kv1.3 and at human Kv1.5 were 8% and 82%, respectively.
As to `OCCN(CCO)c1cc(NCc2ccccn2)c2c(-c3ccccc3)csc2n1` [Example 25, 2-((2-Hydroxy-ethyl)-{3-phenyl-4-[(pyridin-2-ylmethyl)-amino]-thieno[2,3-b]pyridin-6-yl}-amino)-ethanol], the values for the inhibition at 1 µM against human Kv1.3 and against human Kv1.5 were 82% and 81%, respectively.
The corresponding values for `Cc1cccc(CNc2cc(Cl)nc3scc(-c4ccc(F)cc4)c23)n1` [Example 22, [6-Chloro-3-(4-fluoro-phenyl)-thieno[2,3-b]pyridin-4-yl]-(6-methyl-pyridin-2-ylmethyl)-amine] are 78% and 95%.
The corresponding values for `Clc1cc(NCc2ccccn2)c2c(-c3ccccc3)csc2n1` [Example 19, (6-Chloro-3-phenyl-thieno[2,3-b]pyridin-4-yl)-pyridin-2-ylmethyl-amine] are 72% and 88%.
The corresponding values for `OCCc1cc(NCc2ccccn2)c2c(-c3ccccc3)csc2n1` [Example 43, 2-{3-Phenyl-4-[(pyridin-2-ylmethyl)-amino]-thieno[2,3-b]pyridin-6-yl}-ethanol] are 20% and 94%.
As to `Clc1cc(NCc2ccccn2)nc2scc(-c3ccccc3)c12` [Example 20, (4-Chloro-3-phenyl-thieno[2,3-b]pyridin-6-yl)-pyridin-2-ylmethyl-amine], the inhibition at 1 µM against human Kv1.3 is 99%; against human Kv1.5, 93%.
The corresponding values for `Fc1ccc(-c2csc3nc(Cl)cc(NCc4ccccn4)c23)cc1` [Example 21, [6-Chloro-3-(4-fluoro-phenyl)-thieno[2,3-b]pyridin-4-yl]-pyridin-2-ylmethyl-amine] are 71% and 59%.
The corresponding values for `Cc1cccc(CNc2cc(N(CCO)CCO)nc3scc(-c4ccc(F)cc4)c23)n1` [Example 28, 2-[{3-(4-Fluoro-phenyl)-4-[(6-methyl-pyridin-2-ylmethyl)-amino]-thieno[2,3-b]pyridin-6-yl}-(2-hydroxy-ethyl)-amino]-ethanol] are 20% and 21%.
